The target of one assay is p110 alpha (Homo sapiens (Human), UniProt P42336). Put plainly: PI3K isoform inhibition assay, p110 alpha (for alpha/delta selectivity). The following applies: ratio of biochemical IC50 values. The protocol: (§1) PI3K enzymatic activity was assayed by measuring the amount of product phosphatidylinositol 3,4,5-phosphate (PIP3) formed from substrate 4,5 phosphatidylinositol 4,5-phosphate (PIP2) using a fluorescence polarization displacement assay. The decrease in fluorescence polarization of a fluorescent PIP3 probe is measured as it is displaced from a PIP3-binding protein GRP-1 detector by PI3K-catalyzed product. […] The kinase reactions were initiated by the addition of 40 ng/mL p110α/p85α, 300 ng/mL p110β/p85α, 40 ng/mL p110γ, or 40 ng/mL p110δ/p85α (Upstate Group, Millipore; Dundee, UK), and 10 μM PIP2 (Echelon Biosciences) to the wells. […] After 60 minutes of incubation at room temperature to allow equilibration of labeled and unlabeled PIP3 binding, the parallel and perpendicular components of the fluorescence emissions from each sample were measured at an excitation wavelength of 530 nm and an emission wavelength of 590 nm using an Envision fluorescent plate reader with a rhodamine filter (PerkinElmer Life and Analytical Sciences; Wellesley, Mass.). The assay is capable of detecting 0.1-2.0 μM PIP3 product. The IC50 values were obtained by fitting the dose-dependent inhibition data to a 4-parameter equation using Assay Explorer software (MDL, San Ramon, Calif.).
The same protocol may be used to establish IC50 values for p110α (alpha) PI3K binding.
(§2) The four Class I PI 3-kinases are cloned into baculovirus vectors as follows: […]

The next assay concerns the target p110 delta (Homo sapiens (Human), UniProt O00329). In words: PI3K isoform inhibition assay, p110 delta (fluorescence polarization displacement). It counts as biochemical. How it is done:
as §1
The Formula I compound was serially diluted in 100% DMSO. The kinase reaction was incubated for 1 h at room temperature, and the reaction was terminated by the addition of PBS. IC50 values were subsequently determined using sigmoidal dose-response curve fit (variable slope).
as §2
(In general: Polarisation of emitted light reports the rotation of a fluorescent probe.)

The values that follow come from patent publication US9090628B2, “Benzoxazepin compounds selective for PI3K P110 delta and methods of use” (GENENTECH, INC., priority 2011, dated 2015).

p110 delta, sequence (O00329 whole entry, canonical isoform): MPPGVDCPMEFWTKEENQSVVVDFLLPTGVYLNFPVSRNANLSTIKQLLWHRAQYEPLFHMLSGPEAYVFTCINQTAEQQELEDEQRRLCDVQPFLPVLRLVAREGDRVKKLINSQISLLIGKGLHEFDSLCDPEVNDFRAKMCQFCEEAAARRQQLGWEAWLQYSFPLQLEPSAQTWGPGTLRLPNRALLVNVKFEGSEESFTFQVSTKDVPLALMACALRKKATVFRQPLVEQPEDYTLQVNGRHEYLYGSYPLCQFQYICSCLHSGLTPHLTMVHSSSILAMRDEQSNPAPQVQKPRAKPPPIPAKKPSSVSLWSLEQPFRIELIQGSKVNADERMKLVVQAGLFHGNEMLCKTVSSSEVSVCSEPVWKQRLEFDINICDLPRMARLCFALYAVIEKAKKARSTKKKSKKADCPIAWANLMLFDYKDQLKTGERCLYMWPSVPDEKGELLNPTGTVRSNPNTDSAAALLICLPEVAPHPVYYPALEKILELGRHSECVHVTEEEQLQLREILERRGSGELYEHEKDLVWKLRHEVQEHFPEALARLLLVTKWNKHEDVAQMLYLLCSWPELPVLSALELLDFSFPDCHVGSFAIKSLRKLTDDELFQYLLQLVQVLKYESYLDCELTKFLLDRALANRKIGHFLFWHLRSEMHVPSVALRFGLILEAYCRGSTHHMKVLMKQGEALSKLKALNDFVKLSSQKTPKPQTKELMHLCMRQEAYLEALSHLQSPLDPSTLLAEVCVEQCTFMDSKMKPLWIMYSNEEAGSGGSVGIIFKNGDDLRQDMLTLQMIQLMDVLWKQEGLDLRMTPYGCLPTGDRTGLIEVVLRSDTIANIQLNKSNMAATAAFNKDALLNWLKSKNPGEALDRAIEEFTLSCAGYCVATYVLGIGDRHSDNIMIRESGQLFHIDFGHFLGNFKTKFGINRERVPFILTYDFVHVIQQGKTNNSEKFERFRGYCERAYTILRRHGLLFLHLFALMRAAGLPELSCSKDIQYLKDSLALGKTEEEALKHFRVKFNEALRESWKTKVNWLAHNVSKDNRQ
p110 delta, sequence (P27986 whole entry partner, canonical isoform): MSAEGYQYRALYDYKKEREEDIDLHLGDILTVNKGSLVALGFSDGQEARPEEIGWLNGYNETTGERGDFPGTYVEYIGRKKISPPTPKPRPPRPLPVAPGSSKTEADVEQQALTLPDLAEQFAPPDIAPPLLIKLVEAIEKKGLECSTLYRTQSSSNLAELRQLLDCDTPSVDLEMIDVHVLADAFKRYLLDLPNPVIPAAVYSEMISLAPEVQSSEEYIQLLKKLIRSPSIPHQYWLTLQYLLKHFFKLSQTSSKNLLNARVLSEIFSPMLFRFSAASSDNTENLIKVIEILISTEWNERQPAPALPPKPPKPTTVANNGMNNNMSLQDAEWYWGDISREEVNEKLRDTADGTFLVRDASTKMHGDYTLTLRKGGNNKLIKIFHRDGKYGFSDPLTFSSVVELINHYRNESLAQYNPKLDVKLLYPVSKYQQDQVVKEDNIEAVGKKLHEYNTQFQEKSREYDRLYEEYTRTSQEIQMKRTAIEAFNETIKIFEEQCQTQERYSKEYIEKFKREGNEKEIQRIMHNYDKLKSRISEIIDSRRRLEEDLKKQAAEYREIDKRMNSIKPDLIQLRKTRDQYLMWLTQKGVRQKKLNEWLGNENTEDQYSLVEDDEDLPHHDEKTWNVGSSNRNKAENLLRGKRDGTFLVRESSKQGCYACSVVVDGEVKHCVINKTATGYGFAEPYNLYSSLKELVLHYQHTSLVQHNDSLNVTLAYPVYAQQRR
p110 alpha, sequence (P42336 whole entry, canonical isoform): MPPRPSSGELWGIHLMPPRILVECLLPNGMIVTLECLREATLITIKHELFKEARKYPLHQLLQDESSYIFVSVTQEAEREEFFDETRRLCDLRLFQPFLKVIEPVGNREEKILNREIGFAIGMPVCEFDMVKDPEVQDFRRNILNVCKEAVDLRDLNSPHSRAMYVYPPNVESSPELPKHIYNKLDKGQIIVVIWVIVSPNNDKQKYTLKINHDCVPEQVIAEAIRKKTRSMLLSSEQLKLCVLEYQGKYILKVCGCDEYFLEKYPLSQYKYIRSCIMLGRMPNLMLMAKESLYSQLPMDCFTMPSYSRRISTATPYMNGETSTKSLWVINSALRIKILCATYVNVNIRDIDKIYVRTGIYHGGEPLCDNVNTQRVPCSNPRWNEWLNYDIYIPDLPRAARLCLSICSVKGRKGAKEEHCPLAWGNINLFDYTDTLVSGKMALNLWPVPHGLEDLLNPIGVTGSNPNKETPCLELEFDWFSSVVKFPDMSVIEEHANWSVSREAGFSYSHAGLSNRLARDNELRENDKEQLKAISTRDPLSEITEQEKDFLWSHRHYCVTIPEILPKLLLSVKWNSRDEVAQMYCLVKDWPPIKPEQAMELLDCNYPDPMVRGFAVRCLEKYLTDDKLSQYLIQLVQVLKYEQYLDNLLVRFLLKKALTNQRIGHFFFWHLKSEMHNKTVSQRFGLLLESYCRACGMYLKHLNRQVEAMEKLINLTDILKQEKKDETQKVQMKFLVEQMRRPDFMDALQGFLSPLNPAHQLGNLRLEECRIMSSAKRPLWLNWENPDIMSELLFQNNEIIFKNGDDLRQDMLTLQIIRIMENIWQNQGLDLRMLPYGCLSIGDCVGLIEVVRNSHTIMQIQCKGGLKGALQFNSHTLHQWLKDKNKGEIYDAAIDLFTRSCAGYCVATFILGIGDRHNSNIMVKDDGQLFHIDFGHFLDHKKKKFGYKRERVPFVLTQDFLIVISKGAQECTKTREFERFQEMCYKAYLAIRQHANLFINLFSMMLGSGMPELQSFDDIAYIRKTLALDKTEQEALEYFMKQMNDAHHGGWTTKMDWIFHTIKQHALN
p110 alpha, sequence (P27986 whole entry partner, canonical isoform): as the sequence (P27986 whole entry partner, canonical isoform) above

The IC50 is the concentration that inhibits the measured activity by half. Lower therefore signals greater potency. With `Cc1nc(-c2cn3c(n2)-c2ccc(N4CCCC45CCCN(C)C5)cc2OCC3)n(C(C)C)n1` (stereo not drawn) [Example 318, 2-(2-isopropyl-5-methyl-1,2,4-triazol-3-yl)-9-(7-methyl-1,7-diazaspiro[4.5]decan-1-yl)-5,6-dihydroimidazo[1,2-d][1,4]benzoxazepine], the “IC50 p110 alpha/IC50 p110 delta” value at p110 alpha is listed as 29.4. Besides, on p110 delta, the IC50 worked out at 0.178 nM.

For the molecule `Cc1nc(-c2cn3c(n2)-c2ccc(N4CCCC4C4CCCN(C)C4)cc2OCC3)n(C(C)C)n1` (stereo not drawn) [Example 319, 2-(2-isopropyl-5-methyl-1,2,4-triazol-3-yl)-9-[2-(1-methyl-3-piperidyl)pyrrolidin-1-yl]-5,6-dihydroimidazo[1,2-d][1,4]benzoxazepine], on p110 alpha, the “IC50 p110 alpha/IC50 p110 delta” value worked out at 26.3. This molecule returned an IC50 on p110 delta of 2.81 nM.

In the case of `Cc1nc(-c2cn3c(n2)-c2ccc(N4CCCC45CCCN(C)C5)cc2OCC3)n(C(C)C)n1` (stereo not drawn) [Example 320, 2-(2-isopropyl-5-methyl-1,2,4-triazol-3-yl)-9-(7-methyl-1,7-diazaspiro[4.5]decan-1-yl)-5,6-dihydroimidazo[1,2-d][1,4]benzoxazepine], the “IC50 p110 alpha/IC50 p110 delta” value at p110 alpha turned out to be 54.6. The same molecule gave an IC50 on p110 delta of 0.236 nM.

For the molecule `Cc1nc(-c2cn3c(n2)-c2ccc(N4CCCC4C4CCCN(C)C4)cc2OCC3)n(C(C)C)n1` (stereo not drawn) [Example 321, 2-(2-isopropyl-5-methyl-1,2,4-triazol-3-yl)-9-[2-(1-methyl-3-piperidyl)pyrrolidin-1-yl]-5,6-dihydroimidazo[1,2-d][1,4]benzoxazepine], on p110 alpha, the “IC50 p110 alpha/IC50 p110 delta” value stood at 22.1. Besides, the half-maximal inhibitory concentration (IC50) on p110 delta is 2.52 nM.

As for `Cc1nc(-c2cn3c(n2)-c2ccc(N4CCCC4C4CCCN(C)C4)cc2OCC3)n(C(C)C)n1` (stereo not drawn) [Example 322, 2-(2-isopropyl-5-methyl-1,2,4-triazol-3-yl)-9-[2-(1-methyl-3-piperidyl)pyrrolidin-1-yl]-5,6-dihydroimidazo[1,2-d][1,4]benzoxazepine], the “IC50 p110 alpha/IC50 p110 delta” value on p110 alpha is given as 31.9. Besides, at p110 delta, the IC50 worked out at 5.68 nM.

Regarding `Cc1nc(-c2cn3c(n2)-c2ccc(N4CCCC4C4CCCCN4C)cc2OCC3)n(C(C)C)n1` (stereo not drawn) [Example 323, 2-(2-isopropyl-5-methyl-1,2,4-triazol-3-yl)-9-[2-(1-methyl-2-piperidyl)pyrrolidin-1-yl]-5,6-dihydroimidazo[1,2-d][1,4]benzoxazepine], on p110 alpha, the “IC50 p110 alpha/IC50 p110 delta” value worked out at 11.7. This molecule had an IC50 at p110 delta of 1.94 nM.

With `Cc1nc(-c2cn3c(n2)-c2ccc(N4CCCC4C4CCCCN4C)cc2OCC3)n(C(C)C)n1` (stereo not drawn) [Example 324, 2-(2-isopropyl-5-methyl-1,2,4-triazol-3-yl)-9-[2-(1-methyl-2-piperidyl)pyrrolidin-1-yl]-5,6-dihydroimidazo[1,2-d][1,4]benzoxazepine], the “IC50 p110 alpha/IC50 p110 delta” value at p110 alpha is given as 15. In addition, the IC50 at p110 delta is 139 nM.

For the molecule `Cc1nc(-c2cn3c(n2)-c2ccc(N4CCC[C@H]4CN4CCCC4)cc2OCC3)n(C(C)C)n1` [Example 325, (S)-2-(1-isopropyl-3-methyl-1H-1,2,4-triazol-5-yl)-9-(2-(pyrrolidin-1-ylmethyl)pyrrolidin-1-yl)-5,6-dihydrobenzo[f]imidazo[1,2-d][1,4]oxazepine], the “IC50 p110 alpha/IC50 p110 delta” value on p110 alpha is listed as 20.2. In addition, the IC50 on p110 delta was 0.313 nM.

For `Cc1nc(-c2cn3c(n2)-c2ccc(N4CCC[C@@H]4CN4CCCC4)cc2OCC3)n(C(C)C)n1` [Example 326, (R)-2-(1-isopropyl-3-methyl-1H-1,2,4-triazol-5-yl)-9-(2-(pyrrolidin-1-ylmethyl)pyrrolidin-1-yl)-5,6-dihydrobenzo[f]imidazo[1,2-d][1,4]oxazepine], the “IC50 p110 alpha/IC50 p110 delta” value at p110 alpha came to 52.9. For the same molecule, at p110 delta, the IC50 was 0.416 nM.

As to `CC(C)n1nc(N)nc1-c1cn2c(n1)-c1ccc(-c3ccnn3C3CCN(C(C)(C)C)CC3)cc1OCC2` [Example 327, 5-[9-[2-(1-tert-butyl-4-piperidyl)pyrazol-3-yl]-5,6-dihydroimidazo[1,2-d][1,4]benzoxazepin-2-yl]-1-isopropyl-1,2,4-triazol-3-amine], the “IC50 p110 alpha/IC50 p110 delta” value at p110 alpha was found to be 20.8. Also, the IC50 at p110 delta is 3.89 nM.

For the molecule `Cc1nc(-c2cn3c(n2)-c2cc(C(C)N4CCN(C(C)(C)C)CC4)c(F)cc2OCC3)n(C(C)C)n1` (stereo not drawn) [Example 328, 10-[1-(4-tert-butylpiperazin-1-yl)ethyl]-9-fluoro-2-(2-isopropyl-5-methyl-1,2,4-triazol-3-yl)-5,6-dihydroimidazo[1,2-d][1,4]benzoxazepine], the “IC50 p110 alpha/IC50 p110 delta” value at p110 alpha is on record as 109. The molecule also displayed an IC50 on p110 delta of 2.29 nM.

`Cc1nc(-c2cn3c(n2)-c2cc([C@@H](C)N4CCN(C(C)C)CC4)c(C)cc2OCC3)n(C(C)C)n1` [Example 331, (R)-2-(1-isopropyl-3-methyl-1H-1,2,4-triazol-5-yl)-10-(1-(4-isopropylpiperazin-1-yl)ethyl)-9-methyl-5,6-dihydrobenzo[f]imidazo[1,2-d][1,4]oxazepine]: the “IC50 p110 alpha/IC50 p110 delta” value on p110 alpha was found to be 104. This molecule gave an IC50 at p110 delta of 0.865 nM.

For the molecule `Cc1nc(-c2cn3c(n2)-c2cc([C@H](C)N4CCN(C(C)C)CC4)c(C)cc2OCC3)n(C(C)C)n1` [Example 332, (S)-2-(1-isopropyl-3-methyl-1H-1,2,4-triazol-5-yl)-10-(1-(4-isopropylpiperazin-1-yl)ethyl)-9-methyl-5,6-dihydrobenzo[f]imidazo[1,2-d][1,4]oxazepine], on p110 alpha, the “IC50 p110 alpha/IC50 p110 delta” value worked out at 13. At p110 delta, this molecule yielded an IC50 of 0.678 nM.

In the case of `CCN(CC)C1CCOC(c2c(-c3ccc4c(c3)OCCn3cc(-c5nc(C)nn5C(C)C)nc3-4)cnn2C)C1` (stereo not drawn) [Example 333, N,N-diethyl-2-[4-[2-(2-isopropyl-5-methyl-1,2,4-triazol-3-yl)-5,6-dihydroimidazo[1,2-d][1,4]benzoxazepin-9-yl]-2-methyl-pyrazol-3-yl]tetrahydropyran-4-amine], at p110 alpha, the “IC50 p110 alpha/IC50 p110 delta” value was 27.2. The molecule further had an IC50 at p110 delta of 2.37 nM.

On to `Cc1nc(-c2cn3c(n2)-c2cc([C@@H](C)N4CCN(CC(C)(C)O)CC4)c(F)cc2OCC3)n(C(C)C)n1` [Example 334, (R)-1-(4-(1-(9-fluoro-2-(1-isopropyl-3-methyl-1H-1,2,4-triazol-5-yl)-5,6-dihydrobenzo[f]imidazo[1,2-d][1,4]oxazepin-10-yl)ethyl)piperizan-1-yl)-2-methylpropan-2-ol], for which the “IC50 p110 alpha/IC50 p110 delta” value at p110 alpha is recorded as 17.3. The molecule further had an IC50 on p110 delta of 10.5 nM.

As to `Cc1nc(-c2cn3c(n2)-c2ccc(-c4cnn(C)c4C4CC(N(C)C(C)C)CCO4)cc2OCC3)n(C(C)C)n1` (stereo not drawn) [Example 335, N-isopropyl-2-[4-[2-(2-isopropyl-5-methyl-1,2,4-triazol-3-yl)-5,6-dihydroimidazo[1,2-d][1,4]benzoxazepin-9-yl]-2-methyl-pyrazol-3-yl]-N-methyl-tetrahydropyran-4-amine], the “IC50 p110 alpha/IC50 p110 delta” value at p110 alpha was 96.5. On p110 delta, this molecule yielded an IC50 of 2.27 nM.

Take `Cc1nc(-c2cn3c(n2)-c2cc([C@H](C)N4CCN(CC(C)(C)O)CC4)c(F)cc2OCC3)n(C(C)C)n1` [Example 336, (S)-1-(4-(1-(9-fluoro-2-(1-isopropyl-3-methyl-1H-1,2,4-triazol-5-yl)-5,6-dihydrobenzo[f]imidazo[1,2-d][1,4]oxazepin-10-yl)ethyl)piperazin-1-yl)-2-methylpropan-2-ol]: on p110 alpha, the “IC50 p110 alpha/IC50 p110 delta” value is 27. The IC50 on p110 delta came out at 26.8 nM.

As for `Cc1nc(-c2cn3c(n2)-c2ccc(N4CCCC45CCCN(C(C)C)C5)cc2OCC3)n(C(C)C)n1` (stereo not drawn) [Example 337, 9-(7-isopropyl-1,7-diazaspiro[4.5]decan-1-yl)-2-(2-isopropyl-5-methyl-1,2,4-triazol-3-yl)-5,6-dihydroimidazo[1,2-d][1,4]benzoxazepine], the “IC50 p110 alpha/IC50 p110 delta” value on p110 alpha is recorded as 47.9. The same molecule yielded an IC50 on p110 delta of 1.52 nM.

`Cc1nc(-c2cn3c(n2)-c2cc([C@@H](C)N4CCN(C(C)C)CC4)c(F)cc2OCC3)n(C(C)C)n1` [Example 338, (R)-9-fluoro-2-(1-isopropyl-3-methyl-1H-1,2,4-triazol-5-yl)-10-(1-(4-isopropylpiperazin-1-yl)ethyl)-5,6-dihydrobenzo[f]imidazo[1,2-d][1,4]oxazepine]: the “IC50 p110 alpha/IC50 p110 delta” value at p110 alpha is 114. On p110 delta, this molecule returned an IC50 of 1.48 nM.

For `CCN(CC)C1CCOC(c2c(-c3ccc4c(c3)OCCn3cc(-c5nc(C)nn5C(C)C)nc3-4)cnn2C)C1` (stereo not drawn) [Example 339, N,N-diethyl-2-[4-[2-(2-isopropyl-5-methyl-1,2,4-triazol-3-yl)-5,6-dihydroimidazo[1,2-d][1,4]benzoxazepin-9-yl]-2-methyl-pyrazol-3-yl]tetrahydropyran-4-amine], the “IC50 p110 alpha/IC50 p110 delta” value on p110 alpha was 61.5. Also, on p110 delta, the IC50 turned out to be 1.07 nM.

For `Cc1nc(-c2cn3c(n2)-c2cc([C@H](C)N4CCN(C(C)C)CC4)c(F)cc2OCC3)n(C(C)C)n1` [Example 340, (S)-9-fluoro-2-(1-isopropyl-3-methyl-1H-1,2,4-triazol-5-yl)-10-(1-(4-isopropylpiperazin-1-yl)ethyl)-5,6-dihydrobenzo[f]imidazo[1,2-d][1,4]oxazepine], the “IC50 p110 alpha/IC50 p110 delta” value on p110 alpha was found to be 25.8. The IC50 at p110 delta is 2.32 nM.
